Laboratory results published in PubChem BioAssay AID1745844 (Carcinogenic Potency Database (CPDB), 2022).
The source made the active and inactive calls. No rule for the calls is given here.

Tested on: rodent lifetime carcinogenesis bioassay, tumor incidence TD50
Assay: carcinogenic potency in animals, long-term in vivo studies, CPDB compilation (AID 1745844)

## O=S(=O)(O)O
hamster, strain Syrian Golden, females, in drinking water, site: cecum, lesion: one or several types, types not named, dosed 108 weeks, study length 108 weeks
  TD50: 115 mg/kg/day (inactive)
hamster, strain Syrian Golden, females, in drinking water, site: thyroid gland, lesion: adenoma, dosed 108 weeks, study length 108 weeks
  TD50: 124 mg/kg/day (inactive)
hamster, strain Syrian Golden, males, in drinking water, site: cecum, lesion: one or several types, types not named, dosed 119 weeks, study length 119 weeks
  TD50: 136 mg/kg/day (inactive)
hamster, strain Syrian Golden, males, in drinking water, site: liver, lesion: hemangioma, dosed 119 weeks, study length 119 weeks
  carcinogen call: negative (inactive)
hamster, strain Syrian Golden, males, in drinking water, site: liver, lesion: hepatocellular adenoma, dosed 91 weeks, study length 91 weeks
  TD50: 87.5 mg/kg/day
hamster, strain Syrian Golden, males, in drinking water, site: liver, lesion: hepatocellular adenoma, dosed 104 weeks, study length 104 weeks
  TD50: 2590 mg/kg/day
hamster, strain Syrian Golden, males, in drinking water, site: liver, lesion: hepatocellular carcinoma, dosed 91 weeks, study length 91 weeks
  TD50: 464 mg/kg/day
hamster, strain Syrian Golden, males, in drinking water, site: liver, lesion: hepatocellular carcinoma, dosed 104 weeks, study length 104 weeks
  TD50: 181 mg/kg/day
hamster, strain Syrian Golden, males, in drinking water, site: liver, lesion: histiocytoma, malignant, dosed 104 weeks, study length 104 weeks
  TD50: 2580 mg/kg/day
hamster, strain Syrian Golden, males, in drinking water, site: liver, lesion: reticulum-cell sarcoma, dosed 104 weeks, study length 104 weeks
  TD50: 2590 mg/kg/day
hamster, strain Syrian Golden, males, in drinking water, site: liver, lesion: several types, types named in the paper, dosed 91 weeks, study length 91 weeks
  TD50: 87.5 mg/kg/day
mouse, strain AKR, females, in drinking water, site: liver, lesion: one or several types, types not named, dosed 69 weeks, study length 69 weeks
  carcinogen call: negative (inactive)
mouse, strain AKR, females, in drinking water, site: lung, lesion: one or several types, types not named, dosed 69 weeks, study length 69 weeks
  carcinogen call: negative (inactive)
mouse, strain AKR, males, in drinking water, site: liver, lesion: hemangioma, dosed 69 weeks, study length 69 weeks
  carcinogen call: negative (inactive)
mouse, strain AKR, males, in drinking water, site: lung, lesion: adenoma, dosed 69 weeks, study length 69 weeks
  carcinogen call: negative (inactive)
mouse, strain C3H (MTV+), females, in drinking water, site: lung, lesion: adenoma, dosed 92 weeks, study length 92 weeks
  TD50: 109 mg/kg/day
mouse, strain CBA/Cb/Se, females, by gavage, site: liver, lesion: hepatoma, dosed 36 weeks, study length 74 weeks
  TD50: 6.27 mg/kg/day
mouse, strain CBA/Cb/Se, females, by gavage, site: lung, lesion: several types, types named in the paper, dosed 36 weeks, study length 74 weeks
  TD50: 3.35 mg/kg/day
mouse, strain CBA/Cb/Se, males, by gavage, site: liver, lesion: hepatoma, dosed 36 weeks, study length 84 weeks
  TD50: 8.43 mg/kg/day
mouse, strain CBA/Cb/Se, males, by gavage, site: lung, lesion: several types, types named in the paper, dosed 36 weeks, study length 84 weeks
  TD50: 5.1 mg/kg/day
mouse, strain ICRC x C3H (Jax), females, by gavage, site: liver, lesion: one or several types, types not named, dosed 73 weeks, study length 73 weeks
  carcinogen call: negative (inactive)
mouse, strain ICRC x C3H (Jax), females, by gavage, site: lung, lesion: adenocarcinoma, dosed 73 weeks, study length 73 weeks
  TD50: 10.3 mg/kg/day
mouse, strain ICRC x C3H (Jax), males, by gavage, site: liver, lesion: one or several types, types not named, dosed 73 weeks, study length 73 weeks
  carcinogen call: negative (inactive)
mouse, strain ICRC x C3H (Jax), males, by gavage, site: lung, lesion: adenocarcinoma, dosed 73 weeks, study length 73 weeks
  TD50: 79.5 mg/kg/day
mouse, strain Swiss albino, females, in drinking water, site: liver, lesion: hemangioma, dosed 95 weeks, study length 95 weeks
  carcinogen call: negative (inactive)
mouse, strain Swiss albino, females, in drinking water, site: lung, lesion: adenocarcinoma, dosed 95 weeks, study length 95 weeks
  TD50: 146 mg/kg/day
mouse, strain Swiss albino, females, in drinking water, site: lung, lesion: adenoma, dosed 95 weeks, study length 95 weeks
  TD50: 26.7 mg/kg/day
mouse, strain Swiss albino, females, in drinking water, site: lung, lesion: several types, types named in the paper, dosed 95 weeks, study length 95 weeks
  TD50: 23.8 mg/kg/day
mouse, strain Swiss albino, males, in drinking water, site: liver, lesion: several types, types named in the paper, dosed 94 weeks, study length 94 weeks
  TD50: 78.4 mg/kg/day
mouse, strain Swiss albino, males, in drinking water, site: lung, lesion: adenocarcinoma, dosed 94 weeks, study length 94 weeks
  TD50: 74.2 mg/kg/day
mouse, strain Swiss albino, males, in drinking water, site: lung, lesion: adenoma, dosed 94 weeks, study length 94 weeks
  TD50: 23.1 mg/kg/day
mouse, strain Swiss albino, males, in drinking water, site: lung, lesion: several types, types named in the paper, dosed 94 weeks, study length 94 weeks
  TD50: 18.7 mg/kg/day
mouse, strain Swiss, both sexes, by gavage, site: lung, lesion: adenocarcinoma, dosed 95 weeks, study length 95 weeks
  TD50: 9.81 mg/kg/day
mouse, strain Swiss, both sexes, by gavage, site: lung, lesion: one or several types, types not named, dosed 54 weeks, study length 54 weeks
  TD50: 3.92 mg/kg/day
rat, strain Cb/Sc, females, by gavage, site: lung, lesion: several types, types named in the paper, dosed 68 weeks, study length 94 weeks
  TD50: 42.4 mg/kg/day
rat, strain Cb/Sc, males, by gavage, site: liver, lesion: several types, types named in the paper, dosed 68 weeks, study length 94 weeks
  TD50: 39.4 mg/kg/day
rat, strain Cb/Sc, males, by gavage, site: lung, lesion: several types, types named in the paper, dosed 68 weeks, study length 94 weeks
  TD50: 60.1 mg/kg/day

## CCCCC1(COC(=O)CCC(=O)O)C(=O)N(c2ccccc2)N(c2ccccc2)C1=O
rat, strain F344/DuCrj, females, in feed, site: liver, lesion: one or several types, types not named, dosed 104 weeks, study length 104 weeks
  carcinogen call: negative (inactive)
rat, strain F344/DuCrj, males, in feed, site: adrenal gland, lesion: pheochromocytoma, dosed 104 weeks, study length 104 weeks
  TD50: 471 mg/kg/day (inactive)
rat, strain F344/DuCrj, males, in feed, site: liver, lesion: hepatocellular adenoma, dosed 104 weeks, study length 104 weeks
  carcinogen call: negative (inactive)
rat, strain F344/DuCrj, males, in feed, site: liver, lesion: hepatocellular carcinoma, dosed 104 weeks, study length 104 weeks
  carcinogen call: negative (inactive)

## Cc1ccc(Cc2cnc(NCCSCc3ccc(CN(C)C)o3)[nH]c2=O)cn1
mouse, strain SK&F Swiss, females, by gavage, site: gastric mucosa, lesion: carcinoid tumor, malignant, dosed 91 weeks, study length 91 weeks
  carcinogen call: negative (inactive)
mouse, strain SK&F Swiss, males, by gavage, site: gastric mucosa, lesion: carcinoid tumor, malignant, dosed 91 weeks, study length 91 weeks
  carcinogen call: negative (inactive)
rat, strain SK&F Wistar, females, by gavage, site: gastric mucosa, lesion: carcinoid tumor, malignant, dosed 100 weeks, study length 100 weeks
  TD50: 2990 mg/kg/day
rat, strain SK&F Wistar, males, by gavage, site: gastric mucosa, lesion: carcinoid tumor, malignant, dosed 100 weeks, study length 100 weeks
  TD50: 3830 mg/kg/day

## CC(C)(C)c1cc(CO)cc(C(C)(C)C)c1O
rat, strain NZBW (hooded black and white strain), females, in feed, site: any site (literature study), lesion: several types, types named in the paper, dosed 104 weeks, study length 104 weeks
  TD50: 3710 mg/kg/day (inactive)
rat, strain NZBW (hooded black and white strain), females, in feed, site: mammary gland, lesion: fibroadenoma, dosed 104 weeks, study length 104 weeks
  TD50: 3710 mg/kg/day (inactive)
rat, strain NZBW (hooded black and white strain), males, in feed, site: any site (literature study), lesion: one or several types, types not named, dosed 104 weeks, study length 104 weeks
  carcinogen call: negative (inactive)

## CCCCCCCCS(=O)C(C)Cc1ccc2c(c1)OCO2 (configuration not stated)
mouse, strain B6AKF1, males, oral dosing, site: liver, lesion: hepatoma, dosed 76 weeks, study length 76 weeks
  TD50: 88.2 mg/kg/day
mouse, strain B6C3F1, females, in feed, site: any site (literature study), lesion: several types, types named in the paper, dosed 104 weeks, study length 104 weeks
  carcinogen call: negative (inactive)
mouse, strain B6C3F1, females, in feed, site: liver, lesion: hepatocellular adenoma + hepatocellular carcinoma + neoplastic nodule, dosed 104 weeks, study length 104 weeks
  TD50: 725 mg/kg/day
mouse, strain B6C3F1, females, oral dosing, site: any site (literature study), lesion: several types, types named in the paper, dosed 76 weeks, study length 76 weeks
  TD50: 100 mg/kg/day
mouse, strain B6C3F1, males, in feed, site: any site (literature study), lesion: several types, types named in the paper, dosed 104 weeks, study length 104 weeks
  TD50: 423 mg/kg/day
mouse, strain B6C3F1, males, in feed, site: liver, lesion: hepatocellular adenoma + hepatocellular carcinoma + neoplastic nodule, dosed 104 weeks, study length 104 weeks
  TD50: 62.2 mg/kg/day
mouse, strain B6C3F1, males, in feed, site: liver, lesion: hepatocellular carcinoma, dosed 104 weeks, study length 104 weeks
  TD50: 62.2 mg/kg/day
mouse, strain B6C3F1, males, oral dosing, site: all sites, lesion: reticulum-cell sarcoma, dosed 76 weeks, study length 76 weeks
  TD50: 9.1 mg/kg/day
mouse, strain B6C3F1, males, oral dosing, site: any site (literature study), lesion: several types, types named in the paper, dosed 76 weeks, study length 76 weeks
  TD50: 7.72 mg/kg/day
mouse, strain B6C3F1, males, oral dosing, site: liver, lesion: hepatoma, dosed 76 weeks, study length 76 weeks
  TD50: 45.4 mg/kg/day
rat, strain Fischer 344, females, in feed, site: any site (literature study), lesion: several types, types named in the paper, dosed 105 weeks, study length 105 weeks
  TD50: 2300 mg/kg/day (inactive)
rat, strain Fischer 344, males, in feed, site: any site (literature study), lesion: several types, types named in the paper, dosed 105 weeks, study length 105 weeks
  carcinogen call: negative (inactive)
rat, strain Fischer 344, males, in feed, site: liver, lesion: hepatocellular adenoma + hepatocellular carcinoma + neoplastic nodule, dosed 105 weeks, study length 105 weeks
  TD50: 2650 mg/kg/day

## CC(=O)Nc1ccc(-c2ccc(F)cc2)cc1
rat, strain Fischer 344, males, in feed, site: kidney, lesion: adenocarcinoma, dosed 52 weeks, study length 52 weeks
  TD50: 1.01 mg/kg/day
